Biological target: DNMT1 (Homo sapiens, UniProt P26358)
Assay: Nuclear RNA immunoprecipitation (RIP) with anti-DNMT1 antibody
Assay type: binding
Set-up: endogenous in cells; host or cells: HL-60 cells (nuclei); Similar results were obtained in U937 cells
Details: HL-60 cells
Procedure: Nuclear RNA immunoprecipitation (nRIP): nRIP performed as described by Ebralidze et al. (Science 303:383-387, 2004) with some modifications. Crosslinked nuclei were collected as follows: About 60×10^6 HL-60 cells were crosslinked with 1% formaldehyde (formaldehyde solution, freshly made 50 mM HEPES-KOH; 100 mM NaCl; 1 mM EDTA; 0.5 mM EGTA; 11% formaldehyde) for 10 minutes at room temperature. Crosslinking was halted by adding 1/10th volume of 2.66 M Glycine, kept for 5 minutes at room temperature and 10 minutes on ice. Cell pellets were washed twice with ice-cold PBS (freshly supplemented with 1 mM PMSF) and then resuspended in cell lysis buffer (volume=4 mL, 1× Buffer of 10 mM Tris pH 7.4; 10 mM NaCl; 0.5% NP-40, freshly supplemented with protease inhibitors (protease inhibitors cocktail: Roche Applied Science, Cat. No. 1836153, 1 tablet with 375 μL H2O; add as ×100), 1 mM PMSF, and 2 mM vanadyl complex (NEB)). Cells were incubated at 0° C. for 10-15 minutes and homogenized by Dounce (10 strokes pestle A and 40 strokes pestle B). Nuclei were recovered by centrifugation at 2,000 rpm for 10 minutes at 4° C. Nuclei were resuspended in 3 ml 1× Resuspension Buffer (50 mM HEPES-NaOH, pH 7.4; 10 mM MgCl2) supplemented with 1 mM PMSF and 2 mM vanadyl complex. […]

DNMT1, sequence (P26358 whole entry): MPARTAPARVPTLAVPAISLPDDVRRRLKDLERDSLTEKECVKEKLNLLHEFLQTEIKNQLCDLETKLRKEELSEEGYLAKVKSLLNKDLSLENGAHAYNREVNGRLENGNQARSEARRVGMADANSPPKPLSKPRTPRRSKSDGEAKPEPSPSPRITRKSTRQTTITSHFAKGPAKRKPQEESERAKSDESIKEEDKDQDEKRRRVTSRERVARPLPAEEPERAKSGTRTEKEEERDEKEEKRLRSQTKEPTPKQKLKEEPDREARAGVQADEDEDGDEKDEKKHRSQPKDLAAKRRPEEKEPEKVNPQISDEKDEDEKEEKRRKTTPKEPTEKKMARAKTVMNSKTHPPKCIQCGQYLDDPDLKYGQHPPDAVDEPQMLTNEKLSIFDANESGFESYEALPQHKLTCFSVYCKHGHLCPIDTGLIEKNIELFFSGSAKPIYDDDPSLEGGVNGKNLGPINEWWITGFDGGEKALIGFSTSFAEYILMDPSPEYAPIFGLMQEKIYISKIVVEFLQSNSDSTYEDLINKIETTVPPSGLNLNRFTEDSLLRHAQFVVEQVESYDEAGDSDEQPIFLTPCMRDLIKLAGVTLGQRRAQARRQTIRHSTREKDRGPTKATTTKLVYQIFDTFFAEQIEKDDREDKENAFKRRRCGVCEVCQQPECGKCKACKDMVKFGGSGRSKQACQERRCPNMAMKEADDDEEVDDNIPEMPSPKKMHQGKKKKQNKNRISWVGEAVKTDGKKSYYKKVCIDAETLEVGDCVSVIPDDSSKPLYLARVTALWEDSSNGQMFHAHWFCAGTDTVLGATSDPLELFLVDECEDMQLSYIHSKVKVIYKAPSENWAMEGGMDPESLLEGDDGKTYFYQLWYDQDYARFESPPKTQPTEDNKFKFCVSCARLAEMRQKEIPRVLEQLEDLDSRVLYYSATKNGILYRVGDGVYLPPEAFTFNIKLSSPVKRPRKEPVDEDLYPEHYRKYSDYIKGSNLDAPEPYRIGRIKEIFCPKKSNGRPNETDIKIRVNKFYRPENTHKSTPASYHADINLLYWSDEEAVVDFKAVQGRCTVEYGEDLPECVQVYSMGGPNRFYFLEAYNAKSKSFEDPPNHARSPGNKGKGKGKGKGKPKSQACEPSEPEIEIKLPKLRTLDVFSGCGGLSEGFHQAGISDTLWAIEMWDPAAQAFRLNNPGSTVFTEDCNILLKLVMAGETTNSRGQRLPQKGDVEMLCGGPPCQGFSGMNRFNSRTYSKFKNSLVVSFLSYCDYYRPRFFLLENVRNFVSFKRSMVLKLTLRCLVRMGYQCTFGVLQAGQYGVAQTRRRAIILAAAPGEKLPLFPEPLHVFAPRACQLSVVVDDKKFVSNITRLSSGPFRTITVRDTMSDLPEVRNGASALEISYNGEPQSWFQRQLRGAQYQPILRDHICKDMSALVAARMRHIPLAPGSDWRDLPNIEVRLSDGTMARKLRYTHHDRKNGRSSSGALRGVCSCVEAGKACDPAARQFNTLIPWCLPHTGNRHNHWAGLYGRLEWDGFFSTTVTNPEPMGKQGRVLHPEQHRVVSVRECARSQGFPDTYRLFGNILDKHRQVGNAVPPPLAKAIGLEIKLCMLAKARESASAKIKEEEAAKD

## ecRNA: endogenous ~5 kb non-polyadenylated nuclear extra-coding transcript of the C/EBPa locus (SEQ ID NO:8)
  enrichment in DNMT1-RNA precipitates compared to IgG control: > 60 fold
